Reference: patent publication US8110371B2, “Identifying organ damage” (The University Court of the University of Edinburgh, priority 2007, dated 2012)

What was measured:
[1] = NAC as antidote for APAP overdose; cited from earlier work
[2] = Exosomal protein concentration of urine in paracetamol overdose patients (BCA protein assay); type: in vivo, human; settings: 4 hours after paracetamol overdose
Procedure: (§1) Six normal male volunteers (aged 23-40, MREC ethics approval number 06/MRE00/67) provided urine samples in sterile 50 ml plastic containers. To each urine sample a protease inhibitor was added (50:1 of 1 mM Leupeptin). […] 3 out of 6 of these patients had elevated serum alanine transaminase (ALT) 24 hours after admission indicating significant liver injury. The samples were centrifuged at 15000×g for 15 minutes at 4° C. to pellet the urinary sediment. The ‘15000×g supernatant’ was then centrifuged at 100 000 rpm for 1 hour at 4° C. to obtain low density urinary exosome pellets. The 100 000 rpm supernatant was decanted and replaced with an additional ‘15 000×g supernatant’ and ultracentrifuged again. The ultracentrifugation step was repeated 4-6 more times to harvest the exosome pellets from 18-24 ml of 15 000×g supernatant. Pellets were resuspended in 50 μl isolation solution (10 mM triethanolamine/250 mM sucrose (pH 7.6)).
(§2) The amount of urine and MP protein was determined using the BCA™ Protein Assay Kit (Pierce, USA) and following the manufacturer's instructions. 20 μg of normal urine exosome samples were loaded per well. Loading amounts for each of the paracetemol overdose samples were normalised for urinary creatinine to account for differences in urine concentration. […]

[3] = system: c-Jun; assay: Western blot for c-Jun in urine exosomes of paracetamol overdose patients; type: in vivo, human; settings: following paracetamol-induced liver injury in humans, FIG. 7
Procedure: as §1, §2

| Structure (SMILES) | patients with adverse reactions [1] | increase in exosomal proteinuria compared to normal ([2]; pooled sample from 3 patients with organ injury) [fold] | increase in exosomal protein compared to normal healthy individuals ([2]; pooled samples from 3 patients without organ injury) | urinary microparticle concentration of C-Jun protein [3] |
| --- | --- | --- | --- | --- |
| CC(=O)N[C@@H](CS)C(=O)O [N-acetylcysteine] | around 15% | – | – | – |
| CC(=O)Nc1ccc(O)cc1 [paracetamol, N-(4-hydroxyphenyl)ethanamide] | – | ~37 | about 7 fold | increased |
